Tests used:
[1] = Flow characteristics: timed flow from a vertically stood syringe under gravity; assay type: physicochemical; conditions: syringe filled with 20 mL test liquid, room temperature
Experimental: The glucose solutions were made by weighing 6, 12, 18, and 24 g D-glucose respectively and making up with 90° C. water to 30 mL. The flow characteristics were measured by timing the flow rate of 5 mL, and where suitable, 20 mL of the liquids from a vertically stood syringe (BD Plastipak 300613) filled with 20 mL of test liquid under gravity at room temperature.
Sample were analyzed for flow characteristics as described in Example 9.

[2] = Glaze formation: dried on glass plate and scored with a knife; assay type: physicochemical; conditions: cellobiose alone, 10-320 mM, dried at 37° C.
Experimental: 100 μl of 10-320 mM (10, 20, 40, 80, 160, and 320 mM) cellobiose±1% w/v birchwood xylan was pipetted onto a glass plate. • 2. Samples were dried at 37° C. • 3. Samples were scored with a knife to test whether or not the ingredient settled into a solid glaze. […] With a cellobiose concentration of 160 mM or higher (5.5% w/v, or 550% w/w as compared with xylan) the morphology of the glaze reverted to that without xylan present.

Row | Structure (SMILES) | Time for 5 mL flow [1] [s] | Time for 20 mL flow [1] [s] | Glaze formation [2]
1 | O=C[C@H](O)[C@@H](O)[C@H](O)[C@H](O)CO [60% w/v glucose, D-glucose] | 3 | 20 | 
2 | O=C[C@H](O)[C@@H](O)[C@H](O)[C@H](O)CO [20% w/v glucose, D-glucose] | 2.3 | 13.5 | 
3 | O=C[C@H](O)[C@@H](O)[C@H](O[C@@H]1O[C@H](CO)[C@@H](O)[C@H](O)[C@H]1O)[C@H](O)CO [cellobiose] |  |  | no firm glaze was formed
4 | O=C[C@H](O)[C@@H](O)[C@H](O)[C@H](O)CO [80% w/v glucose, D-glucose] | 5 | 38 | 
5 | O=C[C@H](O)[C@@H](O)[C@H](O)[C@H](O)CO [40% w/v glucose, D-glucose] | 2.5 | 15 | 

From patent US11771123B2, “Methods for treating biomass to produce oligosaccharides and related compositions” (Cambridge Glycoscience Ltd, priority 2019, dated 2023)
